Experimental data reported in patent US12692254B2, “Benzimidazole inhibitors of PAD enzymes” (BRISTOL-MYERS SQUIBB COMPANY, priority 2018, dated 2026).

Target: human PAD4 (hPAD4) (Homo sapiens, UniProt Q9UM07)
Assay: RFMS human PAD4 functional assay (rapid-fire mass spectrum)
Assay type: biochemical
Settings: 5 nM hPAD4 enzyme, 250 μM BAEE, 50 μM Calcium; 30 min preincubation, 90 min reaction at 37° C.
Method in brief: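 PAD4 (10 nM) preincubated 30 min with compound (top final 50 μM), then BAEE substrate added in pH 7.5 HEPES buffer with DTT, 50 μM calcium, TPEN; 90 min at 37° C. After TCA quench, citrulline derivatized with phenyl glyoxal (4 mM final, 30 min, 37° C) and quantified by RapidFire MS against internal standard.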

Chain of human PAD4 (hPAD4) (Q9UM07 whole entry): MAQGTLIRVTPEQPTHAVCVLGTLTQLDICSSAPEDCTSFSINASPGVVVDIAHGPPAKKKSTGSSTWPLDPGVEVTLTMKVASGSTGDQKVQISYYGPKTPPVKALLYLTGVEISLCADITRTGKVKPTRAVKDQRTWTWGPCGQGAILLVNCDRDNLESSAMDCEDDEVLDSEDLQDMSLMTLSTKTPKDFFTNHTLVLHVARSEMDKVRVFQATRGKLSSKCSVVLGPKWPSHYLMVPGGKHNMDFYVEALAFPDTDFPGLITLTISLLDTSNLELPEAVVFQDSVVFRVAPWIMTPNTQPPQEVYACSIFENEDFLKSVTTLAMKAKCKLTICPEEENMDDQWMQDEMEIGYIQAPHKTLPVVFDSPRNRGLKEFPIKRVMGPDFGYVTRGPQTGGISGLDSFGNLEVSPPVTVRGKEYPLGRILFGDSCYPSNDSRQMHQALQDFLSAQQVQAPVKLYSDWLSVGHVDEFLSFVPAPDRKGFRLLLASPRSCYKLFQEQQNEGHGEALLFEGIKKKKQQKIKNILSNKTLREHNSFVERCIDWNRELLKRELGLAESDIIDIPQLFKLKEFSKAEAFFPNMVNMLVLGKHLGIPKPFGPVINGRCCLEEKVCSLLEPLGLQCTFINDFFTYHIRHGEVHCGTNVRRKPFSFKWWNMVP

Question: With `COc1cc(C(=O)N2C[C@H]3CC[C@@H]2[C@@H]3N)cc2nc(-c3cc4cccnc4n3CC3CC3)n(C3CN(c4cncc(C#N)n4)C3)c12` [Example 69, 6-(3-{5-[(1R,4R,7R)-7-amino-2-azabicyclo[2.2.1]heptane-2-carbonyl]-2-[1-(cyclopropylmethyl)-1H-pyrrolo[2,3-b]pyridin-2-yl]-7-methoxy-1H-1,3-benzodiazol-1-yl}azetidin-1-yl)pyrazine-2-carbonitrile] as the compound, how does the IC50 read?
Answer: 58 nM

Question: How did the IC50 turn out when `Cc1cc(C(=O)N2CC3CCC2[C@@H]3N)cc2nc(-c3cc4cccnc4n3CC3CC3)n(CC3CN(C(=O)c4ccc(C#N)cc4)C3)c12` (stereo partly drawn) [Example 471, 4-[3-({5-[(7R)-7-amino-2-azabicyclo[2.2.1]heptane-2-carbonyl]-2-[1-(cyclopropylmethyl)-1H-pyrrolo[2,3-b]pyridin-2-yl]-7-methyl-1H-1,3-benzodiazol-1-yl}methyl)azetidine-1-carbonyl]benzonitrile] was run?
Answer: 228 nM

Question: `COc1cc(C(=O)N2C[C@H](N)C[C@@H](F)C2)cc2nc(-c3cc4cccnc4n3CC3CC3)n(Cc3cnn(-c4ccc(F)cn4)c3)c12` [Example 345, (3R,5R)-1-{2-[1-(cyclopropylmethyl)-1H-pyrrolo[2,3-b]pyridin-2-yl]-1-{[1-(5-fluoropyridin-2-yl)-1H-pyrazol-4-yl]methyl}-7-methoxy-1H-1,3-benzodiazole-5-carbonyl}-5-fluoropiperidin-3-amine] was tested. Which IC50 did it give?
Answer: 49 nM

Question: Which IC50 does the source give for `COc1cc(C(=O)N2CC3CCC2[C@@H]3N)cc2nc(-c3cc4ccccc4n3CC3CC3)n(C[C@H]3CCN(C(=O)c4ccc(C#N)cc4)C3)c12` (stereo partly drawn) [Example 226, 4-[(3S)-3-({5-[(1R,4R,7R)-7-aminobicyclo[2.2.1]heptane-2-carbonyl]-2-[1-(cyc1opropylmethyl)-1H-indo1-2-yl]-7-methoxy-1H-1,3-benzodiazol-1-yl}methyl)pyrrolidine-1-carbonyl]benzonitrile] here?
Answer: 37 nM

Question: With `COc1cc(C(=O)N2CC3CCC2[C@@H]3N)cc2nc(-c3cc4cccnc4n3CC3CC3)n([C@H]3C[C@H](NC(C)=O)C3)c12` (stereo partly drawn) [Example 302, N-[(1r,3r)-3-{5-[(1R,4R,7R)-7-amino-2-azabicyclo[2.2.1]heptane-2-carbonyl]-2-[1-(cyclopropylmethyl)-1H-pyrrolo[2,3-b]pyridin-2-yl]-7-methoxy-1H-1,3-benzodiazol-1-yl)cyclobutyl]acetamide] as the compound, how does the IC50 read?
Answer: 1210 nM

Question: `COc1cc(C(=O)N2C[C@H](N)C[C@@H](F)C2)cc2nc(-c3cc4ccccc4n3CC3CC3)n(Cc3cccnc3)c12` [Example 248, ((3R,5R)-3-amino-5-fluoropiperidin-1-yl)(2-(1-(cyclopropylmethyl)-1H-indol-2-yl)-7-methoxy-1-(pyridin-3-ylmethyl)-1H-benzo[d]imidazol-5-yl)methanone] was tested. Which IC50 did it give?
Answer: 116 nM

Question: How did the IC50 turn out when `COC(=O)N[C@H]1C[C@@H](n2c(-c3cc4cccnc4n3CC3CC3)nc3cc(C(=O)N4CC5CCC4[C@@H]5N)cc(OC)c32)C1` (stereo partly drawn) [Example 301, methyl N-[(1s,3s)-3-{5-[(1R,4R,7R)-7-amino-2-azabicyclo[2.2.1]heptane-2-carbonyl]-2-[1-(cyclopropylmethyl)-1H-pyrrolo[2,3-b]pyridin-2-yl]-7-methoxy-1H-1,3-benzodiazol-1-yl}cyclobutyl]carbamate] was run?
Answer: 1000 nM

Question: With `COc1cc(C(=O)N2CC3CCC2[C@@H]3N)cc2nc(-c3cc4ccccc4n3CC3CC3)n(Cc3cnn(-c4ccc(C)cn4)c3)c12` (stereo partly drawn) [Example 404, (7R)-2-{2-[1-(cyclopropylmethyl)-1H-indol-2-yl]-7-methoxy-1-{[1-(5-methylpyridin-2-yl)-1H-pyrazol-4-yl]methyl)-1H-1,3-benzodiazole-5-carbonyl}-2-azabicyclo[2.2.1]heptan-7-amine] as the compound, how does the IC50 read?
Answer: 66 nM

Question: How did the IC50 turn out when `COc1cc(C(=O)N2CC3CCC2[C@@H]3N)cc2nc(-c3cc4ccccc4n3CC3CC3)n(CC3CN(C(=O)c4cnccn4)C3)c12` (stereo partly drawn) [Example 436, (7R)-2-{2-[1-(cyclopropylmethyl)-1H-indol-2-yl]-7-methoxy-1-{[1-(pyrazine-2-carbonyl)azetidin-3-yl]methyl}-1H-1,3-benzodiazole-5-carbonyl}-2-azabicyclo[2.2.1]heptan-7-amine] was run?
Answer: 34 nM

Question: `COc1cc(C(=O)N2CC3CCC2[C@@H]3N)cc2nc(-c3cc4cccnc4n3CC3CC3)n(C3CCN(c4ccnc(C#N)n4)CC3)c12` (stereo partly drawn) [Example 237, 4-(4-{5-[(1R,4R,7R)-7-amino-2-azabicyclo[2.2.1]heptane-2-carbonyl]-2-[1-(cyclopropylmethyl)-1H-pyrrolo[2,3-b]pyridin-2-yl]-7-methoxy-1H-1,3-benzodiazol-1-yl}piperidin-l-yl)pyrimidine-2-carbonitrile] was tested. Which IC50 did it give?
Answer: 540 nM

Question: How did the IC50 turn out when `COc1cc(C(=O)N2C[C@H]3CC[C@@H]2[C@@H]3N)cc2nc(-c3cc4cccnc4n3CC3CC3)n(C3CN(C(=O)c4ccnc(C#N)c4)C3)c12` [Example 184, 4-(3-{5-[(1R,4R,7R)-7-amino-2-azabicyclo[2.2.1]heptane-2-carbonyl]-2-[1-(cyclopropylmethyl)-1H-pyrrolo[2,3-b]pyridin-2-yl]-7-methoxy-1H-1,3-benzodiazol-1-yl}azetidine-1-carbonyl)pyridine-2-carbonitrile] was run?
Answer: 309 nM

Question: With `COc1cc(C(=O)N2C[C@H]3CC[C@@H]2[C@@H]3N)cc2nc(-c3cc4cccnc4n3CC3CC3)n(CC3CN(S(=O)(=O)C(F)(F)F)C3)c12` [Example 325, (1R,4R,7R)-2-{2-[1-(cyclopropylmethyl)-1H-pyrrolo[2,3-b]pyridin-2-yl]-7-methoxy-1-[(1-trifluoromethanesulfonylazetidin-3-yl)methyl]-1H-1,3-benzodiazole-5-carbonyl}-2-azabicyclo[2.2.1]heptan-7-amine] as the compound, how does the IC50 read?
Answer: 163 nM

Question: Which IC50 does the source give for `COc1cc(C(=O)N2CC3CCC2[C@@H]3N)cc2nc(-c3cc4ccccc4n3CC3CC3)n(CC3(C)CN(C(=O)c4ccccc4)C3)c12` (stereo partly drawn) [Example 426, (7R)-2-{1-[(1-benzoyl-3-methylazetidin-3-yl)methyl]-2-[1-(cyclopropylmethyl)-1H-indol-2-yl]-7-methoxy-1H-1,3-benzodiazole-5-carobnyl}-2-azabicyclo[2.2.1]heptan-7-amine] here?
Answer: 24 nM

Question: Which IC50 does the source give for `COc1cc(C(=O)N2C[C@H]3CC[C@@H]2[C@@H]3N)cc2nc(-c3cc4cccnc4n3CC3CC3)n(CC3CN(c4ccnc(C)n4)C3)c12` [Example 16, (1R,4R,7R)-2-{2-[1-(cyclopropylmethyl)-1H-pyrrolo[2,3-b]pyridin-2-yl]-7-methoxy-1-{[1-(2-methylpyrimidin-4-yl)azetidin-3-yl]methyl}-1H-1,3-benzodiazole-5-carbonyl}-2-azabicyclo[2.2.1]heptan-7-amine] here?
Answer: 48 nM

Question: `COc1cc(C(=O)N2C[C@H]3CC[C@@H]2[C@@H]3N)cc2nc(-c3cc4cccnc4n3CC3CC3)n(C[C@H]3CCNC3)c12` [Example 263, (1R,4R,7R)-2-{2-[1-(cyclopropylmethyl)-1H-pyrrolo[2,3-b]pyridin-2-yl]-7-methoxy-1-{[(3S)-pyrrolidin-3-yl]methyl}-1H-1,3-benzodiazole-5-carbonyl}-2-azabicyclo[2.2.1]heptan-7-amine] was tested. Which IC50 did it give?
Answer: 20 nM

Question: Which IC50 does the source give for `COc1cc(C(=O)N2C[C@H]3CC[C@@H]2[C@@H]3N)cc2nc(-c3cc4cccnc4n3CC3CC3)n(CC3CN(C(=O)C4CCCC4)C3)c12` [Example 113, (1R,4R,7R)-2-{1-[(1-cyclopentanecarbonylazetidin-3-yl)methyl]-2-[1-(cyclopropylmethyl)-1H-pyrrolo[2,3-b]pyridin-2-yl]-7-methoxy-1H-1,3-benzodiazole-5-carbonyl]-2-azabicyclo[2.2.1]heptan-7-amine] here?
Answer: 52 nM

Question: For `COc1cc(C(=O)N2C[C@H]3CC[C@@H]2[C@@H]3N)cc2nc(-c3cc4cccnc4n3CC3CC3)n(CC3CN(c4ccnc(S(C)(=O)=O)n4)C3)c12` [Example 18, (1R,4R,7R)-2-{2-[1-(cyclopropylmethyl)-1H-pyrrolo[2,3-b]pyridin-2-yl]-1-{[1-(2-methanesulfonylpyrimidin-4-yl)azetidin-3-yl]methyl}-7-methoxy-1H-1,3-benzodiazole-5-carbonyl}-2-azabicyclo[2.2.1]heptan-7-amine], which IC50 is on record?
Answer: 54 nM

Question: For `COc1cc(C(=O)N2C[C@H]3CC[C@@H]2[C@@H]3N)cc2nc(-c3cc4ccccc4n3CC3CC3)n(CC3CN(C(=O)c4ccc(O)cc4F)C3)c12` [Example 147, 4-[3-({5-[(1R,4R,7R)-7-amino-2-azabicyclo[2.2.1]heptane-2-carbonyl]-2-[1-(cyclopropylmethyl)-1H-indol-2-yl]-7-methoxy-1H-1,3-benzodiazol-1-yl}methyl)azetidine-1-carbonyl]-3-fluorophenol], which IC50 is on record?
Answer: 19 nM

Question: With `COc1cc(C(=O)N2C[C@H]3CC[C@@H]2[C@@H]3N)cc2nc(-c3cc4ccccc4n3CC3CC3)n(CC3CN(C(=O)c4cccnc4)C3)c12` [Example 171, (1R,4R,7R)-2-{2-[1-(cyclopropylmethyl)-1H-indol-2-yl]-7-methoxy-1-{[1-(pyridine-3-carbonyl)azetidin-3-yl]methyl}-1H-1,3-benzodiazole-5-carbonyl}-2-azabicyclo[2.2.1]heptan-7-amine] as the compound, how does the IC50 read?
Answer: 41 nM

Question: For `N[C@@H]1[C@@H]2CC[C@H]1N(C(=O)c1cc(Cl)c3c(c1)nc(-c1cc4cccnc4n1CC1CC1)n3CC1CN(C(=O)c3ccccc3)C1)C2` [Example 89, (3-((5-((1R,4R,7R)-7-amino-2-azabicyclo[2.2.1]heptane-2-carbonyl)-7-chloro-2-(1-(cyclopropylmethyl)-1H-pyrrolo[2,3-b]pyridin-2-yl)-1H-benzo[d]imidazol-1-yl)methyl)azetidin-1-yl)(phenyl)methanone], which IC50 is on record?
Answer: 41 nM

Question: How did the IC50 turn out when `COc1cc(C(=O)N2CC3CCC2[C@@H]3N)cc2nc(-c3cc4ccccc4n3CC3CC3)n(CC3CN(C(=O)c4cncs4)C3)c12` (stereo partly drawn) [Example 448, (7R)-2-{2-[1-(cyclopropylmethyl)-1H-indol-2-yl]-7-methoxy-1-{[1-(1,3-thiazole-5-carbonyl)azetidin-3-yl]methyl}-1H-1,3-benzodiazole-5-carbonyl}-2-azabicyclo[2.2.1]heptan-7-amine] was run?
Answer: 44 nM
